For experiment [1], the target named is T1, human EphB4 (Homo sapiens, UniProt P54760).
T1 sequence (P54760 16-987): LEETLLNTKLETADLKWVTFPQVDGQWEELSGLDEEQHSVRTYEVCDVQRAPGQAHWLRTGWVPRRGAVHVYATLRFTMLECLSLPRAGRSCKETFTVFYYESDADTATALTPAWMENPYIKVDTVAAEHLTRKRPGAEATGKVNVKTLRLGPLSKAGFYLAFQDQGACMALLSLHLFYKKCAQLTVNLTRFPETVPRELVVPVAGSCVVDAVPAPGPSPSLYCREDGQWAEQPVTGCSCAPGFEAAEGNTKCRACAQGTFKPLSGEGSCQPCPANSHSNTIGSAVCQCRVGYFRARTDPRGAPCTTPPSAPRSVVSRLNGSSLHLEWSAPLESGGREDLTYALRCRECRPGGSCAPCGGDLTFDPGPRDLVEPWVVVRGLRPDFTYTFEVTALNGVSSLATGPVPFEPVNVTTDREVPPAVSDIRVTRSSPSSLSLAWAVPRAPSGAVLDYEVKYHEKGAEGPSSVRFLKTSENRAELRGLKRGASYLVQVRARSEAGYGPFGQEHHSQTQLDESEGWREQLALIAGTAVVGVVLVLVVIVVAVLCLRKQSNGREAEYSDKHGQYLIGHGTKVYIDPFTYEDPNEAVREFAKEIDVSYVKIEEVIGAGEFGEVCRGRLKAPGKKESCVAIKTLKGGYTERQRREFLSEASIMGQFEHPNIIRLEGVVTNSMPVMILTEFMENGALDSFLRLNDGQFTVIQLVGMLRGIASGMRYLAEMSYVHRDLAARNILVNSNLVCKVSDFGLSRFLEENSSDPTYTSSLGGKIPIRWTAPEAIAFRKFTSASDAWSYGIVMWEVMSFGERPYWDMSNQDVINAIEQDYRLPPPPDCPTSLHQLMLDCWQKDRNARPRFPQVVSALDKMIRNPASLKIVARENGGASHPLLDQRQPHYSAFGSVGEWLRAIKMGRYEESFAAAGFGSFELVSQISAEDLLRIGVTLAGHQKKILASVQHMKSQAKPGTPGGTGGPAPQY
In words: in vitro enzymatic kinase assay EphB4 (ADP Hunter assay kit). The experiment is classed as biochemical. Particulars: cell-free; ATP 300uM; poly (Glu4-Tyr) 800uM. The method, then: EphB4 inhibition activity of compounds was measured in an in vitro enzymatic kinase assay using the ADP Hunter assay kit (DiscoveRx Corp.), which measures accumulation of ADP produced by the kinase enzyme activity. EphB4 kinase (2ug/mL) is preincubated with different concentrations of compounds for 15 minutes at room temperature in kinase buffer (HEPES 15mM, MgCl2 10mM, EDTA 0.5mM, NaCl 20mM, Tween-20 0.02%, pH 7.4). ATP (300uM) is added and the mixture is incubated for 30 minutes at room temperature for enzyme activation. The peptide substrate poly (Glu4-Tyr) 800uM is added and the mixture is incubated for 60 minutes at 30°C. An enzyme- coupled reaction produces a red-shifted fluorescent signal that is directly proportional to the amount of ADP in solution. Fluorescence emission is measured at 590nm with excitation at 535nm.

The target of experiment [2] is T1, human EphB4. In words: Cellular autophosphorylation assay EphB4 (ELISA) in CHO-EphB4 cells. The experiment is classed as cell-based. Also noted: stably transfected with myc-tagged full length human EphB4; expressed in transfected cells; host or cells: CHO (chinese hamster ovary). As to conditions: ephrinB2/Fc induced autophosphorylation. The method, then: CHO (chinese hamster ovary) cells were stably transfected with myc-tagged full length human EphB4. A cell line expressing EphB4 of which the phosphorylation was inducible with ephrinB2/Fc was identified and called CHO-EphB4. CHO-EphB4 cells were seeded into 96-well plates and cultured overnight in HAM-F12 medium supplemented with 10% fetal calf serum (FCS). Cells were washed once with PBS and different concentrations of compounds in HAM-F12 medium (final concentration of DMSO in the assay was 1%) were added. Cells were incubated at 37°C for 15 minutes. Ligand ephrinB2/Fc (R&D Systems, 1ug/mL final), which had been pre-clustered with anti-IgG Fc antibody (Jackson ImmunoResearch) for 45 minutes at room temperature, was added and cells were further incubated at 37°C for 45 minutes. Cells were lysed in 30uL lysis buffer per well (20mM Tris pH8, 150mM NaCl, 10% glycerol, 1% Triton X-100, 1mM Na3VO4, 1mM EDTA pH8, 1mM EGTA pH8, 1x protease inhibitor cocktail Sigma). ELISA 96-well plates (Nunc, Maxisorp) were coated with 100uL/well anti-c-myc antibody (Sigma) overnight at 4°C, blocked with 300uL/well 5% milk in TBS/0.005% Tween 20 (TBST) for 1 to 3 hours at room temperature, and incubated with 25uL/well cell lysate overnight at 4°C. ELISA plates were washed twice with TBST and incubated with 100uL/well antiphosphotyrosine HRP-coupled antibody (Upstate) diluted 1:1000 in 5% milk in TBST for 1.5 hour at room temperature and developed with 100uL/well BM BluePOD substrate (Roche). Absorbance was measured at 450nm.
Background: In an ELISA, binding on a coated surface is turned into a signal by an enzyme label.

A further experiment has as its target T2, PDGFRb (Homo sapiens, UniProt P09619).
T2 construct: expressed in transfected cells; host or cells: yeast
The experiment can be described thus: yeast growth assay, specificity profiling, PDGFRb. The format is cell-based. As to conditions: Table Y; legend not given. The method, then:
(§1) The yeast growth assay was performed as described in "Method for the identification and/or validation of receptor tyrosine kinase inhibitors" WO2005/040413, section "Modes for Carrying out the Invention", Experiment 1 and Experiment 2: Yeast cells carrying plasmids with the RTK of interest were grown in glucose containing medium (repressing expression). Cultures were diluted into galactose containing medium, which induces expression of the kinase. Expression of the kinase inhibits growth of the yeast cells, which allows for positive selection of kinase inhibitors restoring growth of cells.

The target in the next experiment is T3, VEGFR-1 (Homo sapiens, UniProt P17948).
T3 construct: expressed in transfected cells; host or cells: yeast
In words: yeast growth assay, specificity profiling, VEGFR-1. The format is cell-based. As to conditions: Table Y; legend not given. As to the method:
as §1

For another experiment, the target named is T4, EGFR (Homo sapiens, UniProt P00533).
T4 construct: expressed in transfected cells; host or cells: yeast
In words: yeast growth assay, specificity profiling, EGFR. The format is cell-based. Particulars: Table Y; legend not given. As to the method: as §1

The next experiment deals with T5, InsR (Homo sapiens, UniProt P06213).
T5 construct: expressed in transfected cells; host or cells: yeast
The experiment can be described thus: yeast growth assay, specificity profiling, InsR. The experiment is classed as cell-based. Particulars: Table Y; legend not given. As to the method:
as §1

In the next experiment the target is T6, VEGFR-2 (Homo sapiens, UniProt P35968).
T6 construct: expressed in transfected cells; host or cells: yeast
T6 sequence (P35968 20-1356): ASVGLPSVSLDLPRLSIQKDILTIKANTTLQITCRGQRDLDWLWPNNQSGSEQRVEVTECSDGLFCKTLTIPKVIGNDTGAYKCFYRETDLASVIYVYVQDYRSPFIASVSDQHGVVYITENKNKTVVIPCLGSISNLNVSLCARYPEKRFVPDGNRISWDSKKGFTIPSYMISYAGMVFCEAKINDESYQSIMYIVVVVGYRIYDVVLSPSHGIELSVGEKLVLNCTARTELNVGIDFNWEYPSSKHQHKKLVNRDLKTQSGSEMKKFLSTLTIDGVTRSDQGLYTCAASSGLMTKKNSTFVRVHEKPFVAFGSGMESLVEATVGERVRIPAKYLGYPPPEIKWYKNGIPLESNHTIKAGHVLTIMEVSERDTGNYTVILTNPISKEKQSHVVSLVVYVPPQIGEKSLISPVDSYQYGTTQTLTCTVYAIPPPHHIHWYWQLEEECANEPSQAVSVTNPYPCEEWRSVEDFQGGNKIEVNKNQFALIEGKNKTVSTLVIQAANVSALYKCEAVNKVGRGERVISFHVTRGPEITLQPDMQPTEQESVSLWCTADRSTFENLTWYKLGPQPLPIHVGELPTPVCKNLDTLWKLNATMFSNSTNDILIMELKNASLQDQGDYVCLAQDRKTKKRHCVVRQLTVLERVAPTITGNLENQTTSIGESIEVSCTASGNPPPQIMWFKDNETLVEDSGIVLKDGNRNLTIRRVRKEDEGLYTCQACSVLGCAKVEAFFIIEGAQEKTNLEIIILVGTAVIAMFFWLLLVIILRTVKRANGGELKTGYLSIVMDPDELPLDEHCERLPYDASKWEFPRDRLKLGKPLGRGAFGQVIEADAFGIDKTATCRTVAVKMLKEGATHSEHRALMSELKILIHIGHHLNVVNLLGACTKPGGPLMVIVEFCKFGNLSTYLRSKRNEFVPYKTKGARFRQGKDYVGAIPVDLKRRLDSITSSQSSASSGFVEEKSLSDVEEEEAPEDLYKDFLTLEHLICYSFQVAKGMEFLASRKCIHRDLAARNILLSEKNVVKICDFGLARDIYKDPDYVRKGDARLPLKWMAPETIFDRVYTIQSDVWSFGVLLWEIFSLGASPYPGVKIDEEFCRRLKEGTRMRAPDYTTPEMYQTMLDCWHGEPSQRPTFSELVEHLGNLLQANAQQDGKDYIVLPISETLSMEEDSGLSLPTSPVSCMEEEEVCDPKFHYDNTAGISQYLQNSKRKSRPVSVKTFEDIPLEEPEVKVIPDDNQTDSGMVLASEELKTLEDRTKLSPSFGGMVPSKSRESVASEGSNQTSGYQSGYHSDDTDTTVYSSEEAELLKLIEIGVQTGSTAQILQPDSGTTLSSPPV
The experiment can be described thus: yeast growth assay, specificity profiling, VEGFR-2. The experiment is classed as cell-based. As to conditions: Table Y; legend not given. The method, then: as §1

A further experiment has as its target T7, IGF1R (Homo sapiens, UniProt P08069).
T7 construct: expressed in transfected cells; host or cells: yeast
The experiment can be described thus: yeast growth assay, specificity profiling, IGF1R. The format is cell-based. As to conditions: Table Y; legend not given. As to the method:
as §1

The target of a further experiment is T8, c-Met (Homo sapiens, UniProt P08581).
T8 construct: expressed in transfected cells; host or cells: yeast
T8 sequence (P08581 25-1390): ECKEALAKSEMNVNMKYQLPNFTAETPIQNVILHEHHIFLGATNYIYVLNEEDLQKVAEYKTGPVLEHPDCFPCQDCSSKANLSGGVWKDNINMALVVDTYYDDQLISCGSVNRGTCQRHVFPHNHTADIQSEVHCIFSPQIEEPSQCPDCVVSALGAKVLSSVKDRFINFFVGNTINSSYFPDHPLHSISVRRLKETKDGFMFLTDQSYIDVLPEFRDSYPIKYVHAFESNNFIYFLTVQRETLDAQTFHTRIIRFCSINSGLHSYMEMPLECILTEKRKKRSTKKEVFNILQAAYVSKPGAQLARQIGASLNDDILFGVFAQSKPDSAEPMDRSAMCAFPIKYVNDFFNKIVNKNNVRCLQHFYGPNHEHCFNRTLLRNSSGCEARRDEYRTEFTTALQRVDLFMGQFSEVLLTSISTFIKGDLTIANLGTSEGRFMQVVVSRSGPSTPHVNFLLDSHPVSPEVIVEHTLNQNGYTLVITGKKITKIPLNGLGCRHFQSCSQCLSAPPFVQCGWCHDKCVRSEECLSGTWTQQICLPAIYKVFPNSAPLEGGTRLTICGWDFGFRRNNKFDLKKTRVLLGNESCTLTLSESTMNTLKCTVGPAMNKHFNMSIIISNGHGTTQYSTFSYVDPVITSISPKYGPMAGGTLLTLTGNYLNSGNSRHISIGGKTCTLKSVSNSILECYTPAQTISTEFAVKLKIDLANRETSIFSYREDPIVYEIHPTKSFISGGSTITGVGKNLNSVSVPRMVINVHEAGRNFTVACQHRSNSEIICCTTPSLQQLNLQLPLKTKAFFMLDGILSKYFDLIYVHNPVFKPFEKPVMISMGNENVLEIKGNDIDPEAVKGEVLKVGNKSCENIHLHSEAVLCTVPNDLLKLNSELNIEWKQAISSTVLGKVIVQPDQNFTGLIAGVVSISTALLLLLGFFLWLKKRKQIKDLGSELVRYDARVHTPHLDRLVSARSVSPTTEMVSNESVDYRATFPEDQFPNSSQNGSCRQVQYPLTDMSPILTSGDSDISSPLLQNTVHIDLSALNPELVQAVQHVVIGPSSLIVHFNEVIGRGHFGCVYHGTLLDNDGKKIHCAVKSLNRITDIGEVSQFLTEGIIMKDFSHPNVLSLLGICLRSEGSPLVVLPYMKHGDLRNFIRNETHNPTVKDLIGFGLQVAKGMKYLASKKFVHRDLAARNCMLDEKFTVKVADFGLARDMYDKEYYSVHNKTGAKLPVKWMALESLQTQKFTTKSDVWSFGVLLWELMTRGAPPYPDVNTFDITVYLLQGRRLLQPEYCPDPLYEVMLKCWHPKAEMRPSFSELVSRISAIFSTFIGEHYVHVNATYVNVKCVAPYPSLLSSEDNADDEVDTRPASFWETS
The experiment can be described thus: yeast growth assay, specificity profiling, c-Met. As to conditions: Table Y; legend not given. The experiment is classed as cell-based. The method, then: as §1

Another experiment has as its target T9, ErbB2 (Homo sapiens, UniProt P04626).
T9 construct: expressed in transfected cells; host or cells: yeast
The experiment can be described thus: yeast growth assay, specificity profiling, ErbB2. The experiment is classed as cell-based. As to conditions: Table Y; legend not given. As to the method: as §1

SMILES strings stand for the structures.

T9 sequence (P04626 23-1255): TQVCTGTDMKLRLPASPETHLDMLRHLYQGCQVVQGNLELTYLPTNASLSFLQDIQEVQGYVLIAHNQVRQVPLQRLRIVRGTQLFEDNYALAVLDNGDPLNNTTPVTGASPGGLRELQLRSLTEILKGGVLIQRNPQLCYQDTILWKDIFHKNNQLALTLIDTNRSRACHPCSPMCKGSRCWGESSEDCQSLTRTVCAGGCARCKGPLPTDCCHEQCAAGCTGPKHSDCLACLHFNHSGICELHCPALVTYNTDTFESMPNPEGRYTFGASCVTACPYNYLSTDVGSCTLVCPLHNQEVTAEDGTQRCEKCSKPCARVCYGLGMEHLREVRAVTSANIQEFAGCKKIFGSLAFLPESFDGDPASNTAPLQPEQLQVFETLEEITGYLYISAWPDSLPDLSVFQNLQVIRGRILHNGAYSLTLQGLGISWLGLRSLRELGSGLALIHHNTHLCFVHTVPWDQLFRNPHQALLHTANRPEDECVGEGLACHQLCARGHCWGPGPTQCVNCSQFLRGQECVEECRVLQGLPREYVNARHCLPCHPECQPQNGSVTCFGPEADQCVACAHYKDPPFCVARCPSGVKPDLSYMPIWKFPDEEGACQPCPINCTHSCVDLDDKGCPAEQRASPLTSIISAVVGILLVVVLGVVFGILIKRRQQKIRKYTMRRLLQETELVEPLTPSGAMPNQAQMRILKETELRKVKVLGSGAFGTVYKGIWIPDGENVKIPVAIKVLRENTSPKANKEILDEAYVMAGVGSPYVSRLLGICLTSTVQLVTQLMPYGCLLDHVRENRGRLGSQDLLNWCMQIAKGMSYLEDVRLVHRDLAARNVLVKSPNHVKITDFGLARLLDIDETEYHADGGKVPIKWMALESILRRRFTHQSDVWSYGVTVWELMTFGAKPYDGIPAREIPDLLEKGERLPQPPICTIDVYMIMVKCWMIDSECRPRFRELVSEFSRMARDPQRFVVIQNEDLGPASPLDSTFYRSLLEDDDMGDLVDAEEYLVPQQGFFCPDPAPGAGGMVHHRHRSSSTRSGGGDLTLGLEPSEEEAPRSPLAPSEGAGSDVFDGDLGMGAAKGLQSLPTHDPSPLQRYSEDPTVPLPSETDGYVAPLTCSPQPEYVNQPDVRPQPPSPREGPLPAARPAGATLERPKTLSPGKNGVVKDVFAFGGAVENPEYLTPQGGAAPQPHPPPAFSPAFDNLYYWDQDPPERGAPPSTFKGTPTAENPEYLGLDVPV
T2 sequence (P09619 33-1106): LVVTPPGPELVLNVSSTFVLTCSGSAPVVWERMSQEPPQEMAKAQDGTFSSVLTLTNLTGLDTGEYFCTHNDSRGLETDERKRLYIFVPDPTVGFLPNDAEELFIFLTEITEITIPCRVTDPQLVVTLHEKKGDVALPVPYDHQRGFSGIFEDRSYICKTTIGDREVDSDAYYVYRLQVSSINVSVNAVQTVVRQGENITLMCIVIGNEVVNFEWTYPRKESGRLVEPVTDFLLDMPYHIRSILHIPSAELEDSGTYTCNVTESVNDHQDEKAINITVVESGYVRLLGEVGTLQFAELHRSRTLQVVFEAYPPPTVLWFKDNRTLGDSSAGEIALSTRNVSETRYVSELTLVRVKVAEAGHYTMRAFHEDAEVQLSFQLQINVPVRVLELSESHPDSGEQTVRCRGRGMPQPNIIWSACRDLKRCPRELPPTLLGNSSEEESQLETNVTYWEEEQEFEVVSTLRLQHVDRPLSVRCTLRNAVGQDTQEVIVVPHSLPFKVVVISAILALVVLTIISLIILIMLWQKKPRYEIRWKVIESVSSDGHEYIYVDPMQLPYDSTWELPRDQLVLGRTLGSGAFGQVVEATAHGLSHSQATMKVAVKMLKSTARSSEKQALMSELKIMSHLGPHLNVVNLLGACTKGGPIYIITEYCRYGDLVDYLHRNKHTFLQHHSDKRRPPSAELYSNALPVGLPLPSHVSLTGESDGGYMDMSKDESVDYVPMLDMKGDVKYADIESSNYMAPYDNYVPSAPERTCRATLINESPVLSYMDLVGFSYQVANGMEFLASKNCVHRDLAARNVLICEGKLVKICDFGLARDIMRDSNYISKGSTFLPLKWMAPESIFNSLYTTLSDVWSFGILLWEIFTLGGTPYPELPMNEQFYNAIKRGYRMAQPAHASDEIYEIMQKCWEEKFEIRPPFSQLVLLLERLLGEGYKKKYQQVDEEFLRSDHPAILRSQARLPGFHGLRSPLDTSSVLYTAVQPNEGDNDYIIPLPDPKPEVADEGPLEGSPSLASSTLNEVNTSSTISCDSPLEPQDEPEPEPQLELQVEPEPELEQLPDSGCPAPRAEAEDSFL

Turning to `Cc1ccc(Nc2nc(NCc3ccco3)nc3c2cnn3C)c(C)c1`, on human EphB4 [1], the IC50 (usually the point on the concentration scale where inhibition reaches its midpoint) was 1 to 10 µM.

Consider `CCCNc1nc(Nc2ccc(Cl)cc2C)c2cnn(C)c2n1`, for which the IC50 against human EphB4 [1] was 1 to 10 µM. As to `Cc1cc(Cl)ccc1Nc1nc(NC2CCCC2)nc2c1cnn2C`, the IC50 against human EphB4 [1] and against human EphB4 [2] was 1 to 10 µM throughout. In the case of `Cc1ccccc1Nc1nc(Nc2ccccc2)nc2c1cnn2C`, the IC50 at human EphB4 [1] lay within 1 to 10 µM. On the same count and under the same terms, for `Cc1ccccc1Nc1nc(Nc2ccc(F)cc2)nc2c1cnn2C` the value was 1 to 10 µM; for `CCCNc1nc(Nc2ccccc2C)c2cnn(C)c2n1`, less than 1 µM. As for `CCCCNc1nc(Nc2ccccc2C)c2cnn(C)c2n1`, the IC50 against human EphB4 [1] and against human EphB4 [2] was less than 1 µM in each case. The compound `COCCNc1nc(Nc2ccccc2C)c2cnn(C)c2n1` had an IC50 against human EphB4 [1] of less than 1 µM. On the same count and under the same terms, for `COCCCNc1nc(Nc2ccccc2C)c2cnn(C)c2n1` the value was less than 1 µM; for `C=CCNc1nc(Nc2ccccc2C)c2cnn(C)c2n1`, less than 1 µM; for `Cc1ccccc1Nc1nc(NC2CCCC2)nc2c1cnn2C`, less than 1 µM. With `Cc1ccccc1Nc1nc(NCc2ccccc2)nc2c1cnn2C`, the IC50 against human EphB4 [1] is 1 to 10 µM.

For the compound `Cc1ccccc1Nc1nc(NCc2ccccc2Cl)nc2c1cnn2C`, the IC50 on human EphB4 [1] is 1 to 10 µM; at human EphB4 [2] it was less than 1 µM. The corresponding values for `Cc1ccccc1Nc1nc(NCc2ccco2)nc2c1cnn2C` are less than 1 µM and 1 to 10 µM. For the compound `Cc1ccccc1Nc1nc(N(C)C)nc2c1cnn2C`, the IC50 against human EphB4 [1] was 1 to 10 µM. The same measure, in the same setting: then `Cc1ccccc1Nc1nc(N2CCCC2)nc2c1cnn2C`, with 1 to 10 µM. For the compound `CCNc1nc(Nc2ccccc2C)c2cnn(C)c2n1`, the IC50 at human EphB4 [1] and on human EphB4 [2] was less than 1 µM in each case. Take `CNc1nc(Nc2ccccc2C)c2cnn(C)c2n1`: at human EphB4 [1], the IC50 is less than 1 µM. Still for that read-out and setting: then `Cc1ccccc1Nc1nc(N2CCOCC2)nc2c1cnn2C`, with 1 to 10 µM; and `CCN(CC)CCNc1nc(Nc2ccccc2C)c2cnn(C)c2n1`, with less than 1 µM; and `Cc1ccccc1Nc1nc(N2CCN(C(=O)c3ccco3)CC2)nc2c1cnn2C`, with 1 to 10 µM.

With `CCNc1nc(Nc2ccc(C)cc2C)c2cnn(C)c2n1`, the IC50 against human EphB4 [1] was in the range of 1 to 10 µM. Still for that read-out and setting: then `CNc1nc(Nc2ccc(C)cc2C)c2cnn(C)c2n1`, with 1 to 10 µM. On to `CNc1nc(Nc2ccc(Cl)cc2C)c2cnn(C)c2n1` [[drawing]], for which, at PDGFRb, the “Specificity profiling in the yeast growth assay: PDGFRb” value stood at 0. Further, the “Specificity profiling in the yeast growth assay: VEGFR-1” value on VEGFR-1 was determined as 0. Moreover, on EGFR, the “Specificity profiling in the yeast growth assay: EGFR” value was 0. Moreover, the “Specificity profiling in the yeast growth assay: InsR” value at InsR worked out at 0. In addition, the “Specificity profiling in the yeast growth assay: VEGFR-2” value on VEGFR-2 was 0. In addition, the “Specificity profiling in the yeast growth assay: IGF1R” value on IGF1R is 0. Also, on c-Met, the “Specificity profiling in the yeast growth assay: c-Met” value is 0. Moreover, on ErbB2, the “Specificity profiling in the yeast growth assay: ErbB2” value amounted to 0. For the compound `CNc1nc(Nc2ccc(Cl)cc2C)c2cnn(C)c2n1` [drawing 56], the IC50 is 1 to 10 µM against human EphB4 [1] and greater than 10 µM against human EphB4 [2].

The values are drawn from EP2025678A1, “Pyrazolo[3,4-d]pyrimidine compounds and their use as modulators of protein kinase” (Oncalis AG, priority 2007, dated 2009).
